Measurements: paper PMC12040169 (PLOS Biology, 2025)
Where “and” joins values, the source holds several entries; their conditions need not be identical. Equal values may be shown once.

Key:
HeLa = conditions: bulk resorufin, single well, 28.5 h, 10 µM, Bulk resorufin fluorescence
[1] = test system: T1, C. trachomatis L2/434/Bu expressing GFP (CTL2-GFP); assay: microbe, parasite or virus in culture; set-up: C. trachomatis total inclusion area by high-content imaging, normalised to DMSO; conditions: Chlamydia trachomatis, HeLa, 28.5 h; total inclusion area; read-out: % of control remaining
T1 construct: L2/434/Bu GFP intracellular growth in HeLa cells
Method in brief: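 Screening measures GFP fluorescence from the reporter strain and resorufin fluorescence for host viability, with Hoechst-based imaging of fixed cells adding inclusion area, inclusion number and nuclei count per well.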

in vitro [2] = conditions: human, hela cells, % viability
in vitro [3] = assay: in vitro; set-up: Viability of infected HeLa host cells, resazurin conversion, bulk resorufin fluorescence relative to DMSO; conditions: human, hela cells; bulk resorufin, mean of 2
[4] = test system: T2, CTL2-GFP (C. trachomatis L2/434/Bu, GFP-expressing); assay: microbe, parasite or virus in culture; set-up: Intracellular C. trachomatis growth in HeLa cells, bulk GFP fluorescence relative to DMSO; conditions: Chlamydia trachomatis, HeLa, 28.5 h; bulk GFP, mean of 2; read-out: % of control remaining
T2 construct: L2/434/Bu, GFP-expressing
Protocol: MICs were calculated as described above.

| Compound | % viability (HeLa) | activity at 1 µM [1] [%] | activity at 5 µM [1] [%] | activity at 10 µM [1] [%] | viability at 28.5 h, 10 µM (in vitro [2]) [%] | viability at 28.5 h, 1 µM (in vitro [3]) [%] | viability at 28.5 h, 5 µM (in vitro [3]) [%] | viability at 28.5 h, 10 µM (in vitro [3]) [%] | activity at 1 µM [4] [%] | activity at 5 µM [4] [%] | activity at 10 µM [4] [%] |
| --- | --- | --- | --- | --- | --- | --- | --- | --- | --- | --- | --- |
| COC(=O)c1ccc(-c2cc3ccccc3o2)nc1 [CBK149228] | 96.5% |  |  |  |  |  |  |  |  |  |  |
| COc1ccc(CCNC(=O)C2CCCCC2C(=O)O)cc1 (stereo not drawn) [CBK262636] | 86.3% and 110% |  |  |  |  |  |  |  |  |  |  |
| O=C(O)c1ccc(CNCc2c(F)cccc2Cl)cc1 [CBK269496C] | 111% |  |  |  |  |  |  |  |  |  |  |
| O=C(O)c1ccc(CNCc2c(F)cccc2Cl)cc1 [CBK269496] | 82.3% |  |  |  |  |  |  |  |  |  |  |
| O=C(O)c1cccc(S(=O)(=O)N2CCN(C(=O)c3ccccc3)CC2)c1 [CBK275920] | 113% and 91.5% and 99.3% |  |  |  |  |  |  |  |  |  |  |
| O=C(CN1C(=O)[C@H]2CCCN2C(=O)c2ccccc21)NC1CC1 [CBK282436] | 122% and 91.3% |  |  |  |  |  |  |  |  |  |  |
| CC(C)NC(=O)CN1C(=O)[C@H]2CCCN2C(=O)c2ccccc21 [CBK282437] | 112% and 88.6% |  |  |  |  |  |  |  |  |  |  |
| C[C@@H]1CN(Cc2ccco2)CCN1C(=O)Cc1ccccc1F [CBK284257] | 83.4% and 106% |  |  |  |  |  |  |  |  |  |  |
| O=C(NC[C@H]1CCCN(C(=O)c2ccccn2)C1)c1cccs1 [CBK284262] | 105% and 83.9% |  |  |  |  |  |  |  |  |  |  |
| O=C(NC1CC1)[C@@H]1C=CCN1C(=O)c1ccc(F)cc1F [CBK284279] | 80.5% and 104% |  |  |  |  |  |  |  |  |  |  |
| Cc1cc(NC(=O)c2ccc(Br)o2)nc2c1c(=O)oc1ccccc12 [CBK287440] | 85.8% and 119% |  |  |  |  |  |  |  |  |  |  |
| COc1ccc(C(=O)Nc2nc3nc(C)cc(C)c3s2)cc1 [CBK287755] | 105% and 83% |  |  |  |  |  |  |  |  |  |  |
| Oc1ccc(Nc2ncnc3c2oc2ccccc23)cc1 [CBK287967] | 92.3% and 113% |  |  |  |  |  |  |  |  |  |  |
| O=c1[nH][nH]c2c1cnc1c(C(F)(F)F)cccc12 [CBK287996] | 113% and 84.4% |  |  |  |  |  |  |  |  |  |  |
| O=c1[nH]nc(COc2ccc(Br)cc2)o1 [CBK288526] | 110% and 86.7% |  |  |  |  |  |  |  |  |  |  |
| O=C(O)c1cn(C2CC2)c2cc(N3CCN(C(=O)Cc4ccsc4)CC3)c(F)cc2c1=O [CBK297142] |  | 114 | 17.9 | 12.9 | 88.9 | 90.6 | 93 | 90.7 | 137 | 28.4 | 17.7 |
| Cc1cc(NS(=O)(=O)c2ccc(NC(=O)CCCOc3ccc(Cl)cc3Cl)cc2)no1 [CBK297145] |  | 125 | 84.3 | 56.5 | 103 | 85.1 | 93.5 | 89.4 | 128 | 62.6 | 39.3 |
| CCN1CCN(c2cc3c(cc2F)c(=O)c(C(=O)NCCOC)cn3C2CC2)CC1 [CBK300529] |  | 24.3 | 3.14 | 0.623 | 94.2 | 88.9 | 93 | 88.7 | 36.3 | 5.5 | 6.24 |
| Cc1c(C(=O)O)sc2nc(SCC(=O)NCc3ccccc3)[nH]c(=O)c12 [CBK301214K] | 107% |  |  |  |  |  |  |  |  |  |  |
| CC(Cc1nc(-c2nccn2C)cs1)n1cc(Cl)cn1 (stereo not drawn) [CBK304114] |  | 97.2 | 15.4 | 7.1 | 90.1 | 108 | 100 | 105 | 79.3 | 21 | 7.42 |
| OCCn1ncc2c(NCc3cccc(Cn4ccnc4)c3)ncnc21 [CBK304184] |  | 81 | 101 | 58.7 | 90.3 | 96.1 | 92 | 92.4 | 144 | 158 | 128 |
| Fc1cc(Br)c(CNCc2ncc[nH]2)c(N2CCCCC2)c1F [CBK304243] |  | 105 | 30.4 | 7.47 | 99.2 | 96.3 | 88.7 | 89.7 | 128 | 39.3 | 16.8 |
| COc1cc(OC)c(CCNC2CCCc3c2cnn3C)c(OC)c1 (stereo not drawn) [CBK304482] |  | 102 | 131 | 56.7 | 111 | 97.4 | 91.3 | 93.8 | 147 | 156 | 135 |
| CN1CCOC(CNc2nc(-c3ccncc3)nc3c2CCC3)C1 (stereo not drawn) [CBK304890] |  | 46.1 | 45.8 | 25.1 | 87 | 90.5 | 92.8 | 99.5 | 141 | 112 | 126 |
| CCCc1cc(C(=O)N2CCN(c3nccc(OC)n3)CC2)[nH]n1 [CBK304898] |  | 127 | 120 | 43.6 | 87 | 89.4 | 93.7 | 89.2 | 148 | 151 | 156 |
| CC1CC(C)CN(Cc2csc(NC(=O)Cc3ccc(Cl)cc3)n2)C1 (stereo not drawn) [CBK306142] |  | 140 | 48.4 | 46.1 | 81.1 | 87.7 | 91.3 | 86 | 150 | 112 | 75.2 |
| OCC1(CNc2ncc(F)c(N3CCCC3)n2)CCOCC1 [CBK306647] |  | 130 | 60.9 | 47.1 | 87.3 | 100 | 93.8 | 95.5 | 108 | 64.2 | 59 |
